Values after ≈ are worked out from the molar mass of the structure shown. Where two headings read alike, the source gives them in different places. Starred links: 1 amine or outer side, 2 acyl side, 3 side chain; linkers in the order of their positions; H or OH if unused. Positions of bridges follow the written chain, without caps; N, C: chain ends. Residues, ends and D or L forms follow the SMILES beside them. *: point of attachment. C20 diacid = O=C(O)CCCCCCCCCCCCCCCCCCC(=O)*; γGlu = O=C(O)[C@H](CCC(=O)[*:2])N[*:1]
Assays:
[1] = target: T1, human amylin receptor (amylin 3(a) receptor: human calcitonin receptor + RAMP-3) (Homo sapiens, UniProt O60896+P30988); assay: Assay (II)a functional CRE-luciferase assay, human amylin receptor; type: cell-based; conditions: BHK amylin 3(a)-receptor/CRE-luc cells
T1 construct: expressed in transfected cells; host or cells: BHK570
T1 sequence (P30988 25-474): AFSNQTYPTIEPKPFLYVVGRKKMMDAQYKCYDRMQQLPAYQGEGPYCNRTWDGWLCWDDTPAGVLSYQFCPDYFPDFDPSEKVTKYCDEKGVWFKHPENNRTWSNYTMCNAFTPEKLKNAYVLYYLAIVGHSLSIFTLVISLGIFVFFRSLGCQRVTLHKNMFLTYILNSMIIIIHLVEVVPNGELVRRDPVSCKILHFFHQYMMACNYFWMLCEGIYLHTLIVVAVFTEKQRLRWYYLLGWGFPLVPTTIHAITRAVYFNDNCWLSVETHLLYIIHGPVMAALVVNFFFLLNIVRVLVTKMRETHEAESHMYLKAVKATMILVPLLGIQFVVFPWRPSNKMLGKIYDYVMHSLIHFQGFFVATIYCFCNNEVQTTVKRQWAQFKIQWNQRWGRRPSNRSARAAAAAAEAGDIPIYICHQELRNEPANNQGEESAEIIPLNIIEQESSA
T1 sequence (O60896 24-148 partner): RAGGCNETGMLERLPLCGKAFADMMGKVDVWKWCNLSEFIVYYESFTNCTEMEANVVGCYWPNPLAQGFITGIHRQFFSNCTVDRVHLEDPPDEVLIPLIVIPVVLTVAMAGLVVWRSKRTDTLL
Description: (§1) 1. Luciferase Assay Outline
(§2) Activation of calcitonin and amylin (coexpression of calcitonin receptor and receptor activity modifying proteins (RAMP)) receptors lead to increased intracellular concentrations of cAMP. Consequently, transcription is activated by promoters containing multiple copies of the cAMP response element (CRE). It is thus possible to measure amylin activity by the use of a CRE luciferase reporter gene introduced into BHK cells also expressing calcitonin or amylin receptors.
(§3) A BHK570 cell line was stably transfected with the human calcitonin receptor and a CRE-responsive luciferase reporter gene. The cell line was further transfected with RAMP-3, using standard methods. This turns the calcitonin receptor into an amylin 3(a) receptor. Methotrexate, Neomycin, and Hygromycin are selection markers for luciferase, the calcitonin receptor, and RAMP-3, respectively.
(§4) To perform activity assays, BHK calcitonin (a) receptor- or amylin 3(a)-receptor/CRE-luc cells were seeded in white 96 well culture plates at a density of about 20.000 cells/well. […] Further, 50 μl/well of standard or sample in assay buffer were added. After 3 hours incubation at 37° C. and 5% CO2, the assay medium with standard or sample were removed and replaced by 100 μl/well PBS. Further, 100 μl/well LucLite™ was added. The plates were sealed and incubated at room temperature for 30 minutes. Finally, luminescence was measured on a TopCounter (Packard) in SPC (single photon counting) mode.

[2] = target: T2, human calcitonin receptor (Homo sapiens, UniProt P30988); assay: Assay (II)a functional CRE-luciferase assay, human calcitonin receptor; type: cell-based; conditions: Table 7; human calcitonin (CTa) receptor
T2 construct: expressed in transfected cells; host or cells: BHK570
T2 sequence (P30988 25-474): T1 sequence (P30988 25-474)
Description: as §1, §2, §3, §4

[3] = Assay (IV) determination of solubility; type: physicochemical
In short: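 Solubility is measured across pH 3.0–8.0 by mixing a ~500 nmol/ml aqueous polypeptide stock 1:1 with 100 mM glycylglycine or bistrispropane buffers. Samples stand 18 hours at room temperature, then are centrifuged and the soluble concentration is determined by HPLC.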

[4] = bistrispropane buffer, pH 6, pH 6.0, read-out: Solubility pH 6.0
[5] = bistrispropane buffer, pH 6.5, pH 6.5, read-out: Solubility pH 6.5
[6] = bistrispropane buffer, pH 7, pH 7.0, 18 hours at room temperature, Table 3, read-out: Solubility pH 7.0
[7] = bistrispropane buffer, pH 7, pH 7.0, read-out: Solubility pH 7.0
[8] = bistrispropane buffer, pH 7.5, pH 7.5, read-out: Solubility pH 7.5
[9] = bistrispropane buffer, pH 8, pH 8.0, read-out: Solubility pH 8.0
[10] = glycylglycine buffer, pH 3, pH 3.0, read-out: Solubility pH 3.0
[11] = glycylglycine buffer, pH 4, pH 4.0, read-out: Solubility pH 4.0
[12] = glycylglycine buffer, pH 5, pH 5.0, read-out: Solubility pH 5.0
[13] = glycylglycine buffer, pH 4, pH 4.0, 18 hours at room temperature, Table 2, read-out: Solubility pH 4.0

Compound | EC50 ([1]; Table 3) [nM] | EC50 [2] [nM] | solubility at 18 h [3, 4] [µM] | solubility at 18 h [3, 5] [µM] | solubility at 18 h [3, 6] [µM] | solubility at 18 h [3, 7] [µM] | solubility at 18 h [3, 8] [µM] | solubility at 18 h [3, 9] [µM] | solubility at 18 h [3, 10] [µM] | solubility at 18 h [3, 11] [µM] | solubility at 18 h [3, 12] [µM] | EC50 ([1]; Table 2) [nM] | solubility at 18 h [3, 13] [µM]
CC[C@H](C)[C@H](NC(=O)[C@@H]1CCCN1C(=O)CNC(=O)[C@H](Cc1ccccc1)NC(=O)[C@H](CO)NC(=O)[C@H](CO)NC(=O)[C@H](CO)NC(=O)[C@H](CO)NC(=O)[C@H](CCCNC(=N)N)NC(=O)[C@H](Cc1c[nH]cn1)NC(=O)[C@H](CC(C)C)NC(=O)[C@H](Cc1ccccc1)NC(=O)[C@H](CCC(=O)O)NC(=O)[C@H](C)NC(=O)[C@H](CC(C)C)NC(=O)[C@H](CCCNC(=N)N)NC(=O)[C@H](CCC(N)=O)NC(=O)[C@@H](NC(=O)[C@H](C)NC(=O)[C@@H]1CSSC[C@H](NC(=O)[C@H](Cc2c[nH]cn2)NC(=O)CC[C@H](NC(=O)CCCCCCCCCCCCCCCCCCC(=O)O)C(=O)O)C(=O)NCC(=O)N[C@@H]([C@@H](C)O)C(=O)N[C@@H](C)C(=O)N[C@@H]([C@@H](C)O)C(=O)N1)[C@@H](C)O)C(=O)N[C@@H](CC(C)C)C(=O)N1CCC[C@H]1C(=O)N1CCC[C@H]1C(=O)N[C@H](C(=O)N[C@@H](CCC(=O)O)C(=O)N[C@H](C(=O)NCC(=O)N[C@@H](CO)C(=O)N[C@@H](CCC(=O)O)C(=O)N[C@H](C(=O)N[C@@H](Cc1ccc(O)cc1)C(N)=O)[C@@H](C)O)C(C)C)[C@@H](C)O [Example 16, N-alpha-[(S)-4-Carboxy-4-(19-carboxynonadecanoylamino)butyryl]-[His1,Gly3,Glu14,His17,Arg18,Ser21,Ser22,Glu31,Glu35]-pramlintide] ({C20 diacid-γGlu}-HCGTATCATQRLAEFLHRSSSSFGPILPPTEVGSETY-NH2; disulfide 2-7 (inferred)) | 0.313 | 0.198 | 34 (≈ 150 µg/mL) | 12 (≈ 52.8 µg/mL) | 104 (≈ 458 µg/mL) | 104 (≈ 458 µg/mL) | 122 (≈ 537 µg/mL) | 129 (≈ 568 µg/mL) | 179 (≈ 788 µg/mL) | 80 (≈ 352 µg/mL) | 1 (≈ 4.4 µg/mL) |  | 
CC[C@H](C)[C@H](NC(=O)[C@@H]1CCCN1C(=O)CNC(=O)[C@H](Cc1ccccc1)NC(=O)[C@H](CC(N)=O)NC(=O)[C@H](CC(N)=O)NC(=O)[C@H](CO)NC(=O)[C@H](CO)NC(=O)[C@H](Cc1cnc[nH]1)NC(=O)[C@H](Cc1cnc[nH]1)NC(=O)[C@H](CC(C)C)NC(=O)[C@H](Cc1ccccc1)NC(=O)[C@H](CCC(=O)O)NC(=O)[C@H](C)NC(=O)[C@H](CC(C)C)NC(=O)[C@H](CCCNC(=N)N)NC(=O)[C@H](CCC(N)=O)NC(=O)[C@@H](NC(=O)[C@H](C)NC(=O)[C@@H]1CSSC[C@H](NC(=O)CC[C@H](NC(=O)CCCCCCCCCCCCCCCCCCC(=O)O)C(=O)O)C(=O)N[C@@H](CC(N)=O)C(=O)N[C@@H]([C@@H](C)O)C(=O)N[C@@H](C)C(=O)N[C@@H]([C@@H](C)O)C(=O)N1)[C@@H](C)O)C(=O)N[C@@H](CC(C)C)C(=O)N1CCC[C@H]1C(=O)N1CCC[C@H]1C(=O)N[C@H](C(=O)N[C@@H](CC(N)=O)C(=O)N[C@H](C(=O)NCC(=O)N[C@@H](CO)C(=O)N[C@@H](CC(N)=O)C(=O)N[C@H](C(=O)N[C@@H](Cc1ccc(O)cc1)C(N)=O)[C@@H](C)O)C(C)C)[C@@H](C)O [Example 28, N-alpha-[(S)-4-Carboxy-4-(19-carboxynonadecanoylamino)butyryl]-[des1,Glu14,His17]-pramlintide] ({C20 diacid-γGlu}-CNTATCATQRLAEFLHHSSNNFGPILPPTNVGSNTY-NH2; disulfide 1-6) |  | 0.259 | > 200 | > 200 | > 200 | > 200 | > 200 | > 200 | > 200 | > 200 | > 200 | 0.179 | > 200
CC[C@H](C)[C@H](NC(=O)[C@@H]1CCCN1C(=O)CNC(=O)[C@H](Cc1ccccc1)NC(=O)[C@H](CC(N)=O)NC(=O)[C@H](CC(N)=O)NC(=O)[C@H](CO)NC(=O)[C@H](CO)NC(=O)[C@H](Cc1cnc[nH]1)NC(=O)[C@H](Cc1cnc[nH]1)NC(=O)[C@H](CC(C)C)NC(=O)[C@H](Cc1ccccc1)NC(=O)[C@H](CCC(=O)O)NC(=O)[C@H](C)NC(=O)[C@H](CC(C)C)NC(=O)[C@H](CCCNC(=N)N)NC(=O)[C@H](CCC(N)=O)NC(=O)[C@@H](NC(=O)[C@H](C)NC(=O)[C@@H]1CSSC[C@H](NC(=O)[C@H](CCC(=O)O)NC(=O)CC[C@H](NC(=O)CCCCCCCCCCCCCCCCCCC(=O)O)C(=O)O)C(=O)N[C@@H](CC(N)=O)C(=O)N[C@@H]([C@@H](C)O)C(=O)N[C@@H](C)C(=O)N[C@@H]([C@@H](C)O)C(=O)N1)[C@@H](C)O)C(=O)N[C@@H](CC(C)C)C(=O)N1CCC[C@H]1C(=O)N1CCC[C@H]1C(=O)N[C@H](C(=O)N[C@@H](CC(N)=O)C(=O)N[C@H](C(=O)NCC(=O)N[C@@H](CO)C(=O)N[C@@H](CC(N)=O)C(=O)N[C@H](C(=O)N[C@@H](Cc1ccc(O)cc1)C(N)=O)[C@@H](C)O)C(C)C)[C@@H](C)O [Example 29, N-alpha-[(S)-4-Carboxy-4-(19-carboxynonadecanoylamino)butyryl]-[Glu1,Glu14,His17]-pramlintide] ({C20 diacid-γGlu}-ECNTATCATQRLAEFLHHSSNNFGPILPPTNVGSNTY-NH2; disulfide 2-7) |  | 0.657 | > 200 | > 200 | > 200 | > 200 | > 200 | > 200 | > 200 | > 200 | 107 (≈ 477 µg/mL) | 0.377 | > 200

From patent publication US8722849B2, “Polypeptides” (Novo Nordisk A/S, priority 2011, dated 2014)
